Measurements taken from PubChem BioAssay (NCI).
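Interpolation was linear, between the two tested concentrations surrounding the appropriate level; five concentrations were tested over 48 hours in 96-well plates. TGI denotes the concentration required for complete inhibition of growth.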

Key:
Assay in all cases: DTP human tumour cell line panel, 48 h
COLO 205 colon = test system: COLO 205 colon
SNB-78 CNS = test system: SNB-78 CNS
OVCAR-4 ovarian = test system: OVCAR-4 ovarian
SK-MEL-2 melanoma = test system: SK-MEL-2 melanoma
DLD-1 colon = test system: DLD-1 colon
KM20L2 colon = test system: KM20L2 colon
DMS 114 small cell lung = test system: DMS 114 small cell lung
DMS 273 small cell lung = test system: DMS 273 small cell lung
NCI-H522 lung = test system: NCI-H522 lung
SNB-19 CNS = test system: SNB-19 CNS
IGROV1 ovarian = test system: IGROV1 ovarian
MDA-MB-435 = test system: MDA-MB-435
BT-549 breast = test system: BT-549 breast

CCN1CC2(CO)CCC(OC)C34C5CC6C(OC)CC(O)(C5C6OC)C(O)(C(OC)C23)C14 (stereo not given)
TGI (COLO 205 colon): > 375 µM
TGI (SNB-78 CNS): > 375 µM
TGI (OVCAR-4 ovarian): > 375 µM
TGI (SK-MEL-2 melanoma): > 63.9 µM
TGI (DLD-1 colon): > 59.4 µM
TGI (KM20L2 colon): > 375 µM
TGI (DMS 114 small cell lung): > 375 µM
TGI (DMS 273 small cell lung): > 375 µM
TGI (NCI-H522 lung): > 375 µM
TGI (SNB-19 CNS): > 375 µM
TGI (IGROV1 ovarian): > 375 µM

O/N=C1/C(=C/c2ccc(Br)cc2)CCCC1C(NO)c1ccc(Br)cc1 (stereo not given)
TGI (COLO 205 colon): 28.7 µM
TGI (SNB-78 CNS): 32.6 µM
TGI (OVCAR-4 ovarian): 23.3 µM
TGI (SK-MEL-2 melanoma): 34 µM
TGI (KM20L2 colon): 32.5 µM
TGI (DMS 114 small cell lung): 29.6 µM
TGI (DMS 273 small cell lung): 25.8 µM
TGI (NCI-H522 lung): 32.9 µM
TGI (SNB-19 CNS): 32 µM
TGI (IGROV1 ovarian): 32.4 µM

CC(C)c1cccc(C(C)C)c1NC(=O)/C(Cc1nc2ccc(Cl)cc2[nH]c1=O)=N\NC(=O)C[N+](C)(C)C
TGI (COLO 205 colon): > 100 µM
TGI (OVCAR-4 ovarian): > 100 µM
TGI (SK-MEL-2 melanoma): > 100 µM
TGI (DLD-1 colon): > 100 µM
TGI (KM20L2 colon): > 100 µM
TGI (DMS 114 small cell lung): > 100 µM
TGI (NCI-H522 lung): > 100 µM
TGI (SNB-19 CNS): > 100 µM
TGI (IGROV1 ovarian): > 100 µM

CC(=O)Nc1ccc(S(=O)(=O)Nc2cnc3ccccc3n2)cc1
TGI (COLO 205 colon): > 100 µM
TGI (OVCAR-4 ovarian): > 100 µM
TGI (SK-MEL-2 melanoma): > 100 µM
TGI (DLD-1 colon): > 100 µM
TGI (KM20L2 colon): > 100 µM
TGI (DMS 114 small cell lung): > 100 µM
TGI (DMS 273 small cell lung): > 100 µM
TGI (NCI-H522 lung): > 100 µM
TGI (SNB-19 CNS): > 100 µM
TGI (IGROV1 ovarian): > 100 µM

O=C1C(Nc2ccc(S(=O)(=O)Nc3cnc4ccccc4n3)cc2)=CC(=Nc2ccc(S(=O)(=O)Nc3cnc4ccccc4n3)cc2)c2ccccc21
TGI (COLO 205 colon): 33.1 µM
TGI (SNB-78 CNS): 47.3 µM
TGI (MDA-MB-435): 34 µM
TGI (OVCAR-4 ovarian): 47.2 µM
TGI (SK-MEL-2 melanoma): 36.3 µM
TGI (DLD-1 colon): 31.8 µM
TGI (KM20L2 colon): 32 µM
TGI (DMS 114 small cell lung): 38 µM
TGI (DMS 273 small cell lung): 24.4 µM
TGI (NCI-H522 lung): 30.5 µM
TGI (SNB-19 CNS): 29 µM
TGI (IGROV1 ovarian): 37.4 µM

O=C(Cn1cc(I)c(C(=O)NCC(O)CO)n1)NCC(O)CO (stereo not given)
TGI (COLO 205 colon): > 100 µM
TGI (SNB-78 CNS): > 100 µM
TGI (OVCAR-4 ovarian): > 100 µM
TGI (SK-MEL-2 melanoma): > 100 µM
TGI (DLD-1 colon): > 100 µM
TGI (KM20L2 colon): > 100 µM
TGI (DMS 114 small cell lung): > 100 µM
TGI (DMS 273 small cell lung): > 100 µM
TGI (NCI-H522 lung): > 100 µM
TGI (SNB-19 CNS): > 100 µM
TGI (IGROV1 ovarian): > 100 µM

Cc1ccc(C2=C(c3ccccc3)C(O)(c3ccccc3)C(c3ccccc3)=C2c2ccc(C)cc2)cc1
TGI (SNB-78 CNS): > 100 µM
TGI (SK-MEL-2 melanoma): > 100 µM
TGI (DLD-1 colon): > 100 µM
TGI (KM20L2 colon): > 100 µM
TGI (NCI-H522 lung): > 100 µM
TGI (SNB-19 CNS): > 100 µM
TGI (IGROV1 ovarian): > 100 µM

COc1ccc(/C=N/NC(=O)NCCNCCO)cc1
TGI (COLO 205 colon): > 100 µM
TGI (SNB-78 CNS): > 100 µM
TGI (OVCAR-4 ovarian): > 100 µM
TGI (SK-MEL-2 melanoma): > 100 µM
TGI (DLD-1 colon): > 100 µM
TGI (KM20L2 colon): > 100 µM
TGI (DMS 114 small cell lung): > 100 µM
TGI (DMS 273 small cell lung): > 100 µM
TGI (NCI-H522 lung): > 100 µM
TGI (IGROV1 ovarian): > 100 µM

CC(C)C(N=C1CC2CCC1(C(=O)Nc1ccccc1O)C2(C)C)c1ccccc1 (stereo not given)
TGI (COLO 205 colon): > 10 µM
TGI (SNB-78 CNS): > 10 µM
TGI (OVCAR-4 ovarian): > 10 µM
TGI (SK-MEL-2 melanoma): > 10 µM
TGI (DLD-1 colon): > 10 µM
TGI (KM20L2 colon): > 10 µM
TGI (DMS 114 small cell lung): > 10 µM
TGI (DMS 273 small cell lung): > 10 µM
TGI (NCI-H522 lung): > 10 µM
TGI (SNB-19 CNS): > 10 µM
TGI (IGROV1 ovarian): > 10 µM

c1ccc(C2SCc3nc4ccccc4n32)cc1 (stereo not given)
TGI (COLO 205 colon): > 100 µM
TGI (SNB-78 CNS): > 100 µM
TGI (OVCAR-4 ovarian): > 100 µM
TGI (SK-MEL-2 melanoma): > 100 µM
TGI (DLD-1 colon): > 100 µM
TGI (KM20L2 colon): > 100 µM
TGI (DMS 114 small cell lung): 63.4 µM
TGI (DMS 273 small cell lung): > 100 µM
TGI (NCI-H522 lung): 77.8 µM
TGI (SNB-19 CNS): > 100 µM
TGI (IGROV1 ovarian): > 100 µM

C#CCN(Cc1ccc2nc(-c3ccccc3)c(Cl)nc2c1)c1ccc(Cl)c(Cl)c1
TGI (COLO 205 colon): > 100 µM
TGI (SNB-78 CNS): > 100 µM
TGI (OVCAR-4 ovarian): > 100 µM
TGI (SK-MEL-2 melanoma): > 100 µM
TGI (DLD-1 colon): > 100 µM
TGI (KM20L2 colon): > 100 µM
TGI (DMS 114 small cell lung): > 100 µM
TGI (DMS 273 small cell lung): > 100 µM
TGI (NCI-H522 lung): > 100 µM
TGI (SNB-19 CNS): > 100 µM
TGI (IGROV1 ovarian): > 100 µM

C=C1C(O)C2OC(=O)C(=C)C2C(OC(=O)/C(C)=C/C)CC2(C)OC2C2OC12 (stereo not given)
TGI (BT-549 breast): 27.2 µM
TGI (COLO 205 colon): 31.4 µM
TGI (MDA-MB-435): > 100 µM
TGI (OVCAR-4 ovarian): > 100 µM
TGI (SK-MEL-2 melanoma): 38.4 µM
TGI (NCI-H522 lung): 15.6 µM
TGI (SNB-19 CNS): > 100 µM
TGI (IGROV1 ovarian): > 100 µM

N#Cc1cc([N+](=O)[O-])ccc1NC(=O)C(=O)Nn1c(=S)[nH]c2ccccc2c1=O
TGI (COLO 205 colon): > 100 µM
TGI (SNB-78 CNS): > 100 µM
TGI (OVCAR-4 ovarian): > 100 µM
TGI (DLD-1 colon): > 100 µM
TGI (KM20L2 colon): > 100 µM
TGI (NCI-H522 lung): > 100 µM
TGI (SNB-19 CNS): > 100 µM
TGI (IGROV1 ovarian): > 100 µM

CCN(CC)CCNC(=O)C1COc2ccc(-c3cc(=O)c4ccccc4o3)cc2O1 (stereo not given)
TGI (COLO 205 colon): 34 µM
TGI (SNB-78 CNS): 38.6 µM
TGI (OVCAR-4 ovarian): 35.8 µM
TGI (SK-MEL-2 melanoma): 38 µM
TGI (DLD-1 colon): > 77.7 µM
TGI (KM20L2 colon): 39 µM
TGI (DMS 273 small cell lung): 42.3 µM
TGI (NCI-H522 lung): 32.5 µM
TGI (SNB-19 CNS): 59.9 µM
TGI (IGROV1 ovarian): 63.5 µM

COc1cc(/C=[N+](\[O-])c2ccccc2Cl)ccc1OC(=S)S
TGI (BT-549 breast): 68.3 µM
TGI (COLO 205 colon): 51 µM
TGI (MDA-MB-435): 57.7 µM
TGI (OVCAR-4 ovarian): 27.8 µM
TGI (SK-MEL-2 melanoma): > 100 µM
TGI (NCI-H522 lung): > 100 µM
TGI (SNB-19 CNS): > 100 µM
TGI (IGROV1 ovarian): > 100 µM

C=C1C(=O)OC2C=C(C)CC3C=C(CCC=C(C)CCC12)C(=O)O3 (stereo not given)
TGI (COLO 205 colon): 115 µM
TGI (SNB-78 CNS): 222 µM
TGI (OVCAR-4 ovarian): 131 µM
TGI (SK-MEL-2 melanoma): 101 µM
TGI (DLD-1 colon): 137 µM
TGI (KM20L2 colon): 119 µM
TGI (DMS 114 small cell lung): 151 µM
TGI (DMS 273 small cell lung): 145 µM
TGI (NCI-H522 lung): 57.9 µM
TGI (SNB-19 CNS): 271 µM
TGI (IGROV1 ovarian): 115 µM

CCOC(=O)/C(C(N)=O)=C(/O)c1cnccn1
TGI (BT-549 breast): > 100 µM
TGI (COLO 205 colon): > 100 µM
TGI (MDA-MB-435): > 100 µM
TGI (OVCAR-4 ovarian): > 100 µM
TGI (SK-MEL-2 melanoma): > 100 µM
TGI (NCI-H522 lung): > 100 µM
TGI (SNB-19 CNS): > 100 µM
TGI (IGROV1 ovarian): > 100 µM

Cc1ccc(S(=O)(=O)N(CC(O)COc2ccccc2)c2ccccc2Cl)cc1 (stereo not given)
TGI (BT-549 breast): 31.4 µM
TGI (COLO 205 colon): 34 µM
TGI (MDA-MB-435): 31.7 µM
TGI (OVCAR-4 ovarian): 26.1 µM
TGI (SK-MEL-2 melanoma): 27 µM
TGI (NCI-H522 lung): 25.1 µM
TGI (SNB-19 CNS): 39.5 µM
TGI (IGROV1 ovarian): 25.1 µM

COC(=O)C12CCC(CC1=O)C2(C)C (stereo not given)
TGI (COLO 205 colon): > 100 µM
TGI (OVCAR-4 ovarian): > 100 µM
TGI (DLD-1 colon): > 100 µM
TGI (KM20L2 colon): > 100 µM
TGI (DMS 114 small cell lung): > 100 µM
TGI (DMS 273 small cell lung): > 100 µM
TGI (SNB-19 CNS): > 100 µM
TGI (IGROV1 ovarian): > 100 µM

COc1ccc(/C=C2\CCC(C)(CN(C)C)C2=O)cc1Br (stereo not given)
TGI (BT-549 breast): 45.4 µM
TGI (COLO 205 colon): 34.4 µM
TGI (SNB-78 CNS): 86 µM
TGI (MDA-MB-435): 44 µM
TGI (OVCAR-4 ovarian): 35.9 µM
TGI (SK-MEL-2 melanoma): 36.9 µM
TGI (DLD-1 colon): 37.4 µM
TGI (KM20L2 colon): 17.7 µM
TGI (DMS 114 small cell lung): 51.9 µM
TGI (DMS 273 small cell lung): 32.2 µM
TGI (NCI-H522 lung): 32.8 µM
TGI (SNB-19 CNS): 47.8 µM
TGI (IGROV1 ovarian): 40.2 µM
